Test results reported in publication PMC6302903, “Protein and Chemical Determinants of BL-1249 Action and Selectivity for K2P Channels” (ACS Chemical Neuroscience, 2018).

Columns and labels:
Type in all cases: cell-based
[1] = target: T1, TREK-1/AAK M3-C (Mus musculus, UniProt O88454+P97438); experiment: TEVC of chimera TREK-1/AAK M3-C; details: Xenopus oocytes
T1 construct: Trp199 (TREK-1/AAK M3-C); expressed in transfected cells; host or cells: Xenopus laevis oocytes, mRNA injected; chimera built by Gibson assembly
T1 sequence (P97438+O88454 with tags, fused parts or gaps P97438:N200H/P97438:S202P/P97438:Q203P/P97438:T204G/P97438:K205L/P97438:I206V/P97438:I208S/P97438:I209L/P97438:T211A/P97438:I212V/P97438:I213L/P97438:I215L/P97438:F217I/P97438:V220L/P97438:A224L/P97438:L225T/P97438:A227T/P97438:V228F/P97438:I229V/P97438:K231S/P97438:H232Y/P97438:I233M/P97438:G235S/P97438:A238K/P97438:D240E/P97438:V246I/P97438:I247V/P97438:I252V/P97438:A259P/P97438:G261D/P97438:S262G/P97438:D263T/P97438:I264G/P97438:E265Q/P97438:Y266N/P97438:L267S/P97438:D268P/P97438:F269A/P97438:K271Q/P97438:V273L/P97438:V280F/P97438:A287S/P97438:S290T/P97438:M291T/P97438:D294N): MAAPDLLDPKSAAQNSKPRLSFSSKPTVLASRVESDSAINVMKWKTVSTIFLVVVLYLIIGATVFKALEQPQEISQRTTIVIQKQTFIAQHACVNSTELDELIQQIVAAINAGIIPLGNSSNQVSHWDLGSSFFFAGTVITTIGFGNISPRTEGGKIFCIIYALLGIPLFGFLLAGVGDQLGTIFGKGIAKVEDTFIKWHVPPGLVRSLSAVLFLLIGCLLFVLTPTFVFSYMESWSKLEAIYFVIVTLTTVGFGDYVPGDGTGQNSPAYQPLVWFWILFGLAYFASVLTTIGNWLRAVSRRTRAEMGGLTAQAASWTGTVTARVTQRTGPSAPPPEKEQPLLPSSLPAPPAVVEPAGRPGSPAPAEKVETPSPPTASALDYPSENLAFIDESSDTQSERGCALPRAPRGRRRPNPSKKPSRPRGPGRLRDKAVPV

[2] = target: T2, TRAAK/EK-1 M2-C (Mus musculus, UniProt O88454+P97438, A151S/D143N/F160Y/H141A/P165L/Q138H/R166H/S147A/S164V/V139S/V154I); experiment: TEVC of chimera TRAAK/EK-1 M2-C; details: Xenopus oocytes
T2 construct: Thr114 (TRAAK/EK-1 M2-C); expressed in transfected cells; host or cells: Xenopus laevis oocytes, mRNA injected; chimera built by Gibson assembly
T2 sequence (O88454+P97438 fused with the stated changes): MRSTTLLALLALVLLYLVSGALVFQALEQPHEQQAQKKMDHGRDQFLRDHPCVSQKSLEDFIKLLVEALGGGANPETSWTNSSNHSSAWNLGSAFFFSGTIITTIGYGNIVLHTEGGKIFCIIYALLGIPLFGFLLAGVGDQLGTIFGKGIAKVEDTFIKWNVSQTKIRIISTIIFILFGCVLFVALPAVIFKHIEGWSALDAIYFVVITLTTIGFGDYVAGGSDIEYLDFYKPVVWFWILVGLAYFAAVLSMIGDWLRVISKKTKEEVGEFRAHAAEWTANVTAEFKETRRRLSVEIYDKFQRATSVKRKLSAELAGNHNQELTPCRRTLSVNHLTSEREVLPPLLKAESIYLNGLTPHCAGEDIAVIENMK

[3] = target: T3, K2P2.1(TREK-1) (Mus musculus, UniProt P97438); experiment: TEVC of K2P2.1(TREK-1) in Xenopus oocytes; parameters: expressed in transfected cells; host or cells: Xenopus laevis oocytes injected with mRNA made from pGEMHE/pMO
T3 sequence (P97438 1-411 isoform P97438-2): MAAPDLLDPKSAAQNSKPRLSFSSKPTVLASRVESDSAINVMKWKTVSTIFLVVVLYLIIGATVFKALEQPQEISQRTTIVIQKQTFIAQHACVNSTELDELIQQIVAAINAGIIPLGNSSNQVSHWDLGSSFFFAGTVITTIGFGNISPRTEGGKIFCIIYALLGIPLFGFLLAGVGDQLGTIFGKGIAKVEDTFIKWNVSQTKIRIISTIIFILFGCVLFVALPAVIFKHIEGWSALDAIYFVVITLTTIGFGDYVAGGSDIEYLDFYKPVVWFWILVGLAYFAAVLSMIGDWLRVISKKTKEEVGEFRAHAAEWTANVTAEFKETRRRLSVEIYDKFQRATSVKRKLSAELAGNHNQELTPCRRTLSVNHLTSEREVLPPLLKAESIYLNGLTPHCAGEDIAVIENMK
Description: Constructs for murine K2P channels, including K2P2.1(TREK-1) (Gene ID 16526), K2P10.1(TREK-2) (Gene ID 72258), K2P4.1(TRAAK) (Gene ID 16528), K2P5.1(TASK-2) (Gene ID 16529), K2P3.1(TASK-1) (Gene ID 16527), K2P9.1(TASK-3) (Gene ID 223604), and K2P18.1(TRESK) (Gene ID 332396) in pGEMHE/pMO, were used for Xenopus oocyte experiments as previously described.[10],[26] Murine K2P2.1(TREK-1) (Gene ID 16526) was expressed in HEK-293 cells using a pIRES-EGFP construct as previously described.[26] Murine K2P13.1(THIK-1) (Gene ID 217826) and K2P1.1(TWIK-1) (Gene ID 16525) were cloned into pGEMHE/pMO for use in Xenopus oocytes. Chimeras were designed using EMBOSS Needle pairwise sequence alignment tool[58] to match homologous helices in K2P2.1(TREK-1) and K2P4.1(TRAAK) and were assembled using the Gibson assembly method.[59] Chimera boundaries are Thr152 (TREK-1/AAK M2-C), Trp199 (TREK-1/AAK M3-C), Y272 (TREK-1/AAK M4-C), Thr114 (TRAAK/EK-1 M2-C), Trp161 (TRAAK/EK-1 M3-C), and Tyr234 K2P4.1(TRAAK). All sequences were verified using DNA sequencing.
Xenopus laevis oocytes were harvested in accordance with UCSF IACUC protocol AN129690 and digested in calcium-free ND-96 (96 mM NaCl, 2 mM KCl, 3.8 mM MgCl2) immediately following harvest, as previously described.[6],[10] Digested oocytes were maintained in standard ND96 (96 mM NaCl, 2 mM KCl, 1.8 mM CaCl2, 2 mM MgCl2) with antibiotics (100 units mL^–1 penicillin, 100 μg mL^–1 streptomycin, 50 μg mL^–1 gentimycin). Defolliculated stage V–VI oocytes were injected with 0.2–6.0 ng of mRNA in 50 nL, and currents were recorded 24–48 h after injection. mRNA was synthesized from plasmid DNA using mMessage mMachine Kit (T7 promoter, Ambion, Life Technologies) and purified using RNEasy Kit (Qiagen). Injected oocytes were impaled with two standard microelectrodes (0.2–1.0 MΩ) filled with 3 M KCl and subjected to constant perfusion of standard ND96 during recording. Currents were amplified using the GeneClamp 500B (MDS Analytical Technologies) amplifier controlled by the pClamp software (Molecular Devices). Data were digitized at 1 kHz using Digidata 1332A (MDS Analytical Technologies). For all experiments with small molecules, basal currents were evoked using 1 s long ramps from −150 to +50 mV under constant perfusion of ND96. Once stabilized basal currents were recorded, compounds were perfused at various concentrations in standard ND96 and currents were allowed to increase to stabilization before recording final current. Fold activation upon compound application is expressed as I/I0 (0 mV), derived from the current at 0 mV in the presence of compound divided by the basal current at 0 mV in standard ND96 without compound. Data were analyzed and plotted using Graphpad Prism Version 5 (GraphPad Software, San Diego California USA, www.graphpad.com). […] In the case of BL-1249-acid EC50 estimation, upper bound of I/I0 was set to 20 to account for the strong stimulation of BL-1249-acid.

[4] = target: T4, TRAAK/EK-1 M4-C (Mus musculus, UniProt O88454+P97438, F242V/L235V/N256D/S249A/T252S/T253M); experiment: TEVC of chimera TRAAK/EK-1 M4-C; details: Xenopus oocytes
T4 construct: and Tyr234 K2P4.1(TRAAK); expressed in transfected cells; host or cells: Xenopus laevis oocytes, mRNA injected; chimera built by Gibson assembly
T4 sequence (O88454+P97438 fused with the stated changes): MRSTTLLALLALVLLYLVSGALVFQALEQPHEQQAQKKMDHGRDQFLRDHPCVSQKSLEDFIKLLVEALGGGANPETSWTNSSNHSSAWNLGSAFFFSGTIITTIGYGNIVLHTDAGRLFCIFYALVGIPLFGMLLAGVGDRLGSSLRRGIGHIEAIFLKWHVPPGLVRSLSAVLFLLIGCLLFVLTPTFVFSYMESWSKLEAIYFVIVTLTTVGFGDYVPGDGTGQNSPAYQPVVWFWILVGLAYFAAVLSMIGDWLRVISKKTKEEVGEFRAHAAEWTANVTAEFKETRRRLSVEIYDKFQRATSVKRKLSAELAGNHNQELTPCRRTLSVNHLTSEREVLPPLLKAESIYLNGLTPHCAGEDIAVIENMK

Row | K2P2.1(TREK-1) current response ([3]; extracellular application of 10 μM) | EC50 ([3]; extracellular application, fold activation I/I0 at 0 mV) [µM] | SMILES | EC50 [1] [µM] | EC50 [2] [µM] | effect on K2P2.1(TREK-1) current (in words) ([3]; dose-response) | EC50 [4] [µM]
1 | – | – | CS(=O)(=O)Nc1ccc(C(=O)NCc2ccc(Cl)cc2Cl)cc1 [ML335] | > 100 | 8 ± 1 | robustly responded | > 100
2 | clear activation responses | 5.5 ± 1.2 | c1ccc(-c2nnn[nH]2)c(Nc2cccc3c2CCCC3)c1 [BL-1249, (5,6,7,8-tetrahydro-naphthalen-1-yl)-[2-(1H-tetrazol-5-yl)-phenyl]-amine] | 28 ± 2 | 28 ± 5 | – | 45 ± 2
